{
  "source": "patent US20210386722A1",
  "about": "“Treatment of Covid-19 with Nitroxides” (priority 2021, published 2021)",
  "key": {"SARS-COV-2 [1]": {"tested_on": "SARS-COV-2", "experiment": "Treatment of a patient with presumptive Covid-19 (case report)", "format": "in vivo, human", "text": "A septuagenarian person experienced sudden frightening onset of severe headache, marked nausea and vomiting, pharyngitis, severe upper respiratory congestion, fever, chills, myalgia, weakness, malaise, and mild to moderate pulmonary congestion. O2 saturation=96%. Patient had been taking Tempol off-and-on for years for cancer prophylaxis and for its possible antiaging activity, as well as some miscellaneous actions such as treatment of periodontitis and osteoarthritis. But, concerned that it would interfere with their activity, they had stopped Tempol about 6 weeks before receiving influenza (Fluvax) and Zoster (Zostavax) immunizations. The presumptive-diagnosis was “Covid-19”, possibly from a medically-related exposure.\nTreatment: Nausea and vomiting continued without respite for several hours. Anti-nausea tablets were twice regurgitated intact. Accordingly, treatment was initiated with 30 mg of Tempol PO as the hydroxylamine in a 6% water solution containing 90 mg vitamin-C. Patient kept this down. Along with Tempol-zinc gargles for pharyngitis, intranasal treatment was then initiated with a medication-soaked cotton swab and insufflation, repeated approximately q 6 h as symptoms returned. This was followed by similar doses of Tempol-H three and six hours later, repeated 2-3 times a day, PO for the next ten days. Subsequent intranasal treatment was also repeated 1-3 times a day for 10 days, as needed, titrating to relief of oropharyngeal symptoms as they recurred. On days 2-3, treatment was briefly initiated with hydroxychloroquine, zinc, doxycycline, ivermectin, and famotidine, then withdrawn."}, "SARS-COV-2 [2]": {"tested_on": "SARS-COV-2", "details": "in vivo; cited from earlier work"}, "SARS-COV-2 [3]": {"tested_on": "SARS-COV-2", "experiment": "Person on Tempol heavily exposed to patient 1", "format": "in vivo, human", "details": "Tempol 60 mg/day", "text": "By days 5-7 remaining symptoms were mild reversible-on-treatment nasal congestion, pharyngitis, and malaise. […] PCR for SARS-COV-2 RNA was negative at day 10. While not surprising considering the clinical course, in retrospect, this may have signified some direct antiviral effect of the application of Tempol directly to the upper respiratory mucosa and oropharynx by insufflation, inhalation, or gargling. […] After patient discontinued treatment for several weeks, subsequent putative recurrent post-acute symptoms of Covid-19 such as malaise, myalgia, and shortness of breath appeared."}, "[4]": {"biological_target": "T1, SARS-COV-2 replicase (RNA-Dependent RNA polymerase) (Severe acute respiratory syndrome coronavirus 2, UniProt P0DTD1)", "T1 construct": "SARS-COV-2 replicase (RNA-Dependent RNA polymerase)", "details": "by oxidizing iron-sulfur centers; cited from earlier work"}, "SARS-COV-2 [5]": {"tested_on": "SARS-COV-2", "details": "potentially physiological Tempol concentrations; cited from earlier work"}, "[6]": {"tested_on": "nonrespiratory coronavirus", "details": "mouse, in vivo; cited from earlier work"}},
  "data": [
    {"smiles": "CC1(C)CC(O)CC(C)(C)N1O", "note": "[Tempol-H]", "values": [
      {"measurement": "pulmonary congestion", "setting": "SARS-COV-2 [1]; after initiation of treatment", "value": "cleared somewhat"},
      {"measurement": "nasal congestion", "setting": "SARS-COV-2 [1]; repeated intranasal treatment (soaked cotton swab and insufflation)", "value": "quickly reversibly-eased"},
      {"measurement": "events experienced by the patient during treatment", "setting": "SARS-COV-2 [1]; that night and several subsequent ones", "value": "“vivid dreaming”"},
      {"measurement": "headache", "setting": "SARS-COV-2 [1]; within one to two hours of initiation of treatment", "value": "eased significantly"}
    ]},
    {"smiles": "CCC(CC)COC(=O)[C@H](C)N[P@](=O)(OC[C@H]1O[C@@](C#N)(c2ccc3c(N)ncnn23)[C@H](O)[C@@H]1O)Oc1ccccc1", "note": "[Remdisivir]", "values": [
      {"measurement": "efficacy of systemic treatment of Covid-19", "setting": "SARS-COV-2 [2]", "value": "ineffective or only marginally-effective"}
    ]},
    {"smiles": "CCN(CCO)CCCC(C)Nc1ccnc2cc(Cl)ccc12", "note": "(centres unmarked) [hydroxychloroquine]", "values": [
      {"measurement": "efficacy of systemic treatment of Covid-19", "setting": "SARS-COV-2 [2]", "value": "ineffective or only marginally-effective"}
    ]},
    {"smiles": "CC1(C)CC(O)CC(C)(C)N1[O]", "note": "[Tempol, 4-hydroxy-TEMPO]", "values": [
      {"measurement": "PCR for SARS-COV-2 RNA", "setting": "SARS-COV-2 [1]; day 10", "value": "negative"},
      {"measurement": "overall symptoms", "setting": "SARS-COV-2 [1]; days 8-9, excepting slight malaise", "value": "essentially asymptomatic"},
      {"measurement": "recurrent post-acute symptoms of Covid-19 (malaise, myalgia, shortness of breath)", "setting": "SARS-COV-2 [1]; further treatment as above plus lung inhalation of 0.1 ml of 6% Tempol or Tempol-H solution", "value": "responded reversibly"},
      {"measurement": "efficacy of Tempol itself (non-reduced form)", "setting": "SARS-COV-2 [1]; same doses as Tempol-H", "value": "effective at the same doses"},
      {"measurement": "development of coronavirus disease after heavy exposure", "setting": "SARS-COV-2 [3]", "value": "did not develop clinically-significant coronavirus disease"},
      {"measurement": "effect on replicase enzyme", "setting": "[4]", "value": "inactivates this key enzyme"},
      {"measurement": "viral replication in vitro", "setting": "SARS-COV-2 [5]", "value": "markedly inhibits viral replication"},
      {"measurement": "murine viral encephalomyelitis", "setting": "[6]", "value": "ameliorates"}
    ]}
  ]
}
